For the data set, the system named is PC3-mice. As to the kind of experiment: Dosimetry in mice (nTACs, effective half-lives, TIAC/g). It counts as in vivo, mouse. As to conditions: for Effective half life: Tumor: nTACs. The protocol: (n = 3). The %I.A./g of tissue was calculated for liver, lungs, stomach, spleen, pancreas, kidneys, intestines, bone, muscle, salivary glands, heart wall, blood, tumor. To estimate the absolute activity in each source organ, the individual %I.A./g values were multiplied by the corresponding organ mass derived from the standard 25 g MOBY mouse phantom, yielding in the normalized source organ activities (nA) per time point and animal.
Following Cicone et al., the nA values for source organs were corrected to account for the fraction of administered activity sequestered by the tumor, as described in more detail in the dosimetry section of the supplemental data. According to the MIRD formalism, time-integrated activity coefficients (TIACs) were derived by integrating the normalized time-activity curves (nTACs), which were fitted using the bi-exponential functions. TIACs were calculated by fitting the nTACs with the bi-exponential functions and performing time integration in MATLAB. Additionally, mass-normalized TIACs (TIAC/g) were derived using organ masses from the standard 25 g MOBY mouse phantom (Supplemental data).
Biodistribution kinetics for [177Lu]Lu-DOTAGA.Glu.(FAPI)2 and [177Lu]Lu-DO3A.Glu.(FAPI)2 were assessed by ex vivo quantification of the accumulated radioactivity in source organs using a calibrated gamma counter at 4, 24, 48, 72, and 96 hours p.i. (n=3). The percentage of injected activity per gram of tissue (%I.A./g) was calculated, as described above, for a comprehensive panel of tissues, including liver, lungs, stomach, spleen, pancreas, kidneys, intestines, bone, muscle, salivary glands, heart wall, blood, and tumor. To estimate the absolute activity in each source organ, the individual %I.A./g values was multiplied by the corresponding organ mass derived from the standard 25 g MOBY mouse phantom, which provides high-resolution anatomical reference data for the murine models (28). […] The actual activity measurements were referred to the gamma counter measurement time (i.e. no physical decay correction to the administration time was applied). For each organ and time point, the mean nA was subsequently calculated across the three animals.
As outlined by Cicone et al., (1) the nA values for source organs were corrected to account for the fraction of administered activity sequestered by the tumor by redistributing the tumor nA (nAtumor) to organs according to the formula: […]
Where nAWB is the nA measured in the whole body. This adjustment was implemented to facilitate the extrapolation of absorbed dose data from mice to humans, considering that the tumor "sink effect" - prominent in murine models - is generally negligible in human subjects. In radiopharmaceutical dosimetry using tumor-bearing mice, the “tumor sink” effect refers to the phenomenon where large or highly avid tumors absorb a significant portion of the injected radiotracer, reducing its availability to normal organs. This can lead to artificially low uptake measurements in healthy tissues, which may not reflect what would occur in humans with smaller tumors or lower tumor burden. To correct for this, dosimetry calculations often include a "tumor sink correction" that adjusts normal organ uptake values to account for the radiotracer sequestered by the tumor, ensuring more accurate and clinically relevant dose estimates.
According to the MIRD formalism, for each source organ, time-integrated activity coefficients (TIACs) were derived by integrating the normalized time-activity curves (nTACs), which were fitted using the bi-exponential functions. The integration of the fitted nTACs was extended to infinity for organs in which the effective half-life of the slower bi-exponential component (tslow) was shorter than the physical half-life of lutetium-177 (tslow < tphys). […]

Where [1] appears, read: PC3-mice, nTACs corrected for tumor sink.

Consider `N#C[C@@H]1CC(F)(F)CN1C(=O)CNC(=O)c1ccnc2ccc(OCCCCNC(=O)CC[C@H](NC(=O)CN3CCN(CC(=O)[O-])CCN(CC(=O)[O-])CCN(CC(=O)[O-])CC3)C(=O)NCCCCOc3ccc4nccc(C(=O)NCC(=O)N5CC(F)(F)C[C@H]5C#N)c4c3)cc12.[177Lu+3]` [[^177Lu]Lu-DO3A.Glu.(FAPI)2], for which, for the setting “Mouse”, the “TIAC/g Bones” value is 3.82 ± 0.12 h/g, the “TIAC/g Heart contents” value is on record as 0.12 ± 0.003 h/g, the “TIAC/g Kidneys” value stood at 0.20 ± 0.01 h/g and the “TIAC/g Liver” value worked out at 3.47 ± 0.14 h/g. For the setting “Mouse”, the “TIAC/g Pancreas” value was 0.20 ± 0.01 h/g, the “TIAC/g Rest of the body” value was found to be 10.77 ± 0.32 h/g, the “TIAC/g Salivary glands” value is 0.25 ± 0.02 h/g and the “TIAC/g Tumor” value amounted to 1.61 ± 0.2 h/g. Where the note is “PC3-mice”, the “Effective half life: Tumor” value came out at 51 ± 12.6 h. Besides, under setting [1], the “Effective half life: Bones” value came to 23.3 ± 1.4 h, the “Effective half life: Heart content” value is 12.8 ± 0.4 h, the “Effective half life: Kidney” value was 22.3 ± 7.1 h and the “Effective half life: Liver” value worked out at 70.4 ± 2.9 h. Besides, under setting [1], the “Effective half life: Lung” value was determined as 18.3 ± 4.4 h, the “Effective half life: Pancreas” value turned out to be 14.1 ± 3.2 h, the “Effective half life: Salivary glands” value is listed as 11.8 ± 5.9 h and the “Effective half life: Small Intestine” value was determined as 16.2 ± 4.5 h.

In the case of `N#C[C@@H]1CC(F)(F)CN1C(=O)CNC(=O)c1ccnc2ccc(OCCCCNC(=O)CC[C@H](NC(=O)CCC(C(=O)O)N3CCN(CC(=O)[O-])CCN(CC(=O)[O-])CCN(CC(=O)[O-])CC3)C(=O)NCCCCOc3ccc4nccc(C(=O)NCC(=O)N5CC(F)(F)C[C@H]5C#N)c4c3)cc12.[177Lu+3]` (stereo partly shown) [[^177Lu]Lu-DOTAGA.Glu.(FAPI)2], for the setting “Mouse”, the “Liver TIAC/g, times higher than for [177Lu]Lu-DO3A.Glu.(FAPI)2” value amounted to 2.7 times; the “TIAC/g Bones” value came to 6.65 ± 0.39 h/g; the “TIAC/g Heart contents” value came to 0.11 ± 0.005 h/g; the “TIAC/g Kidneys” value is reported as 0.39 ± 0.02 h/g. Also, where the note is “Mouse”, the “TIAC/g Liver” value is recorded as 9.65 ± 0.82 h/g, the “TIAC/g Pancreas” value turned out to be 0.29 ± 0.01 h/g, the “TIAC/g Rest of the body” value worked out at 10.75 ± 0.68 h/g and the “TIAC/g Salivary glands” value was 0.36 ± 0.01 h/g. Moreover, the “TIAC/g Tumor” value (Mouse) came out at 1.19 ± 0.16 h/g. Under “PC3-mice”, the “Effective half life: Tumor” value was 39.1 ± 1.1 h. Besides, under setting [1], the “Effective half life: Bones” value came out at 30.9 ± 0.5 h, the “Effective half life: Heart content” value was found to be 12.5 ± 0.1 h, the “Effective half life: Kidney” value is listed as 50.1 ± 3.1 h and the “Effective half life: Lung” value was found to be 19.9 ± 0.6 h. For the same compound, under setting [1], the “Effective half life: Pancreas” value came to 40 ± 14.2 h, the “Effective half life: Salivary glands” value was 52.1 ± 14.9 h and the “Effective half life: Small Intestine” value was found to be 25.4 ± 0.9 h.

Source of the values: PMC12860872, “Preclinical evaluation of DOTAGA.Glu.(FAPI)2 and DO3A.Glu.(FAPI)2 as theranostics with human dosimetry extrapolation to lutetium-177 and terbium-161 analogs” (European Journal of Nuclear Medicine and Molecular Imaging, 2025).
